Results reported in US20250163057A1, “DCN-1 MODULATING COMPOUNDS AND METHODS OF USE THEREOF” (Cellarity, Inc., priority 2023, published 2025).
pEC50, pIC50: −log10 of the molar value. Where two headings read alike, the source gives them in different places.

Columns and labels:
[1] = system: fetal hemoglobin gene HBG1; assay: HBG1 Nanostring Assay in CD34+ HSPC erythroid differentiation culture; assay type: cell-based, human; conditions: for pEC50: HBG1 induction, Day10 of erythroid differentiation; for Nanostring Ymax obs (%): relative to a control compound (C1)
Method in brief: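 CD34+ HSPCs were dosed from day −2 (0.1% DMSO) through two-phase erythroid differentiation (EPO, transferrin, SCF, IL-3, insulin; IL-3 removed from day 7) at 37° C, 5% CO2. Day-10 lysates of 100K cells were hybridized at 67° C for 22 h for nCounter counting, normalized to ERCC and housekeeping controls. EC50 and Ymax were derived, with Ymax relative to a control compound.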

[2] = system: Cullin-3 (CUL3) neddylation; assay: AlphaLISA assay for Cullin-3 (CUL3) neddylation in TF 1 cells; assay type: cell-based; conditions: 3 hours treatment
Method in brief: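 TF 1 cells in unsupplemented IMDM treated with compound concentrations for 3 h, then lysed. CUL3 neddylation detected by AlphaLISA (biotinylated anti-NEDD8, anti-CUL3 acceptor beads overnight, streptavidin donor beads 1 h); normalized to vehicle (0%) and 1 μM DI-1548 (100%), IC50 from Hill fits.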

DCN1 protein = DCN1 protein (Homo sapiens (Human), UniProt Q96GG9); assay: Intact Protein MS Analysis with the RapidFire-TOF System (covalent adduct formation); assay type: binding; conditions: MS Emax; 400 nM DCN1, 3 hours at room temperature
Sequence of DCN1 protein (Q96GG9 whole entry): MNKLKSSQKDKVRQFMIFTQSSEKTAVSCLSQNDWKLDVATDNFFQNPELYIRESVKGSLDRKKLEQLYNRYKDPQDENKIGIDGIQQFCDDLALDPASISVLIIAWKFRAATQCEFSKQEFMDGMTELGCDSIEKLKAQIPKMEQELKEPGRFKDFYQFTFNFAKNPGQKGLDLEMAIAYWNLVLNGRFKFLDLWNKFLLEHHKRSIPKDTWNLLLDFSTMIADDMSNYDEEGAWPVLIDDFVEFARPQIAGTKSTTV
Method in brief: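 Tag-cleaved human DCN1 (400 nM) expressed in E. coli, in 25 mM Tris-HCl, 200 mM NaCl, 1 mM DTT, was incubated with 11 compound concentrations for 3 h at room temperature and quenched with 0.2% formic acid. Intact-protein Q-TOF MS with deconvolution detected the compound adduct mass.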

[3] = biological target: DCN1 (DCUND1) protein PONY domain (Homo sapiens (Human), UniProt Q96GG9); assay: TR-FRET assay, DCN1 binding with FAM-labeled probe; conditions: for IC50: TR FRET IC50 1 hr (nM), 1 hr after treatment with compound; for pIC50: 24 hr after treatment with compound, read-out: TR FRET IC50 24 hr
Sequence of DCN1 (DCUND1) protein PONY domain (Q96GG9 60-248): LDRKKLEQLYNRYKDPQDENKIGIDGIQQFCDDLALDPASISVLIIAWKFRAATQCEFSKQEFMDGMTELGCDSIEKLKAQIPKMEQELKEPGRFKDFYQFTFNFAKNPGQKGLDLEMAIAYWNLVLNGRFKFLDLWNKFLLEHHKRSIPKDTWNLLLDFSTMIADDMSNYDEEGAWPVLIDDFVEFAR
Method in brief: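 TR-FRET ratio (Tb-DCN1 to FAM-probe) read at 1, 5 and 24 hrs after compound addition. Protein: recombinant PONY domain from E. coli, biotinylated and coupled to streptavidin terbium. Either 5 nM DCN1 with 20 nM FAM-probe, or 0.31 nM DCN1 with 100 nM FAM-labelled plus 800 nM unlabelled probe.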

Structure (SMILES) | pEC50 [1] | Nanostring Ymax obs (%) [1] | pIC50 [2] | % Adduct Formation (DCN1 protein) | pEC50 ([1]; Homo sapiens, 240 h) | pIC50 ([2]; Homo sapiens, TF-1, 3 h) | IC50 [3] [nM] | pIC50 [3]
CCN1C(=O)[C@@H](NC(=O)c2cccc(C(F)(F)F)c2)[C@@H](c2ccc(F)cc2)c2c([C@@H](C)NC#N)nn(-c3ccccc3)c21 (mixture of isomers) [Compound I-167] | 6.00 to 7.00 | ++ (Nanostring Ymax greater than 50.0 and less than or equal to 100.0) | ≥ 7.00 | +++ (MS Emax % adduct formation greater than 80.0 and less than or equal to 100.0) | – | – | – | –
CCN1C(=O)[C@@H](NC(=O)c2cccc(C(F)(F)F)c2)[C@@H](c2ccc(F)cc2)c2c(NC(=O)[C@@H](C)Br)nn(-c3ccccc3)c21 (mixture of isomers) [Compound I-177] | – | ++ (Nanostring Ymax greater than 50.0 and less than or equal to 100.0) | – | + (MS Emax % adduct formation greater than or equal to 0.0 and less than or equal to 30.0) | < 6.00 | 6.00 to 7.00 | – | –
CCN1C(=O)[C@@H](NC(=O)c2cccc(C(F)(F)F)c2)[C@@H](c2ccc(F)cc2)c2c([C@@H](C)NC(=O)CCl)nn(-c3ccccc3)c21 (mixture of isomers) [Compound I-190] | – | ++ (Nanostring Ymax greater than 50.0 and less than or equal to 100.0) | – | + (MS Emax % adduct formation greater than or equal to 0.0 and less than or equal to 30.0) | < 6.00 | < 6.00 | – | –
C#CC(=O)N[C@H](C)c1nn(-c2ccccc2)c2c1[C@H](c1ccc(F)cc1)[C@H](NC(=O)c1cccc(C(F)(F)F)c1)C(=O)N2CC (mixture of isomers) [Compound I-236] | – | + (Nanostring Ymax greater than or equal to 0.0 and less than or equal to 50.0) | – | +++ (MS Emax % adduct formation greater than 80.0 and less than or equal to 100.0) | ≥ 7.00 | ≥ 7.00 | – | –
C=C(CN(C)C)C(=O)NCc1nn(-c2ccccc2)c2c1[C@H](c1ccc(F)cc1)[C@H](NC(=O)c1cccc(C(F)(F)F)c1)C(=O)N2CC (racemic) [Compound I-18] | – | + (Nanostring Ymax greater than or equal to 0.0 and less than or equal to 50.0) | – | +++ (MS Emax % adduct formation greater than 80.0 and less than or equal to 100.0) | 6.00 to 7.00 | ≥ 7.00 | – | –
CCN1C(=O)[C@@H](NC(=O)c2cccc(C(F)(F)F)c2)[C@H](c2ccc(F)cc2)c2c(CN(C)C(=O)/C=C/C(=O)OC)nn(-c3ccccc3)c21 (racemic) [Compound I-141, methyl (˜{E})-4-[[(4˜{S},5˜{S})-7-ethyl-4-(4-fluorophenyl)-6-oxo-1-phenyl-5-[[3-(trifluoromethyl)benzoyl]amino]-4,5-dihydropyrazolo[3,4-b]pyridine-3-yl]methyl-methyl-amino]-4-oxo-but-2-enoate] | – | ++ (Nanostring Ymax greater than 50.0 and less than or equal to 100.0) | – | + (MS Emax % adduct formation greater than or equal to 0.0 and less than or equal to 30.0) | < 6.00 | – | 200 to 1000 | –
CCN1C(=O)[C@@H](NC(=O)c2cccc(C(F)(F)F)c2)[C@@H](c2ccc(F)cc2)c2c(CCN(C)C#N)nn(-c3ccccc3)c21 (racemic) [Compound I-151, rac-N-((4R,5R)-7-ethyl-4-(4-fluorophenyl)-3-(2-(N-methylcyanamido)ethyl)-6-oxo-1-phenyl-4,5,6,7-tetrahydro-1H-pyrazolo[3,4-b]pyridin-5-yl)-3-(trifluoromethyl)benzamide] | – | ++ (Nanostring Ymax greater than 50.0 and less than or equal to 100.0) | – | +++ (MS Emax % adduct formation greater than 80.0 and less than or equal to 100.0) | < 6.00 | – | 200 to 1000 | ≥ 6.70
CCN1C(=O)[C@@H](NC(=O)c2cccc(C(F)(F)F)c2)[C@@H](c2ccc(F)cc2)c2c(CNC(=O)C3=C(C(=O)OC)CC3)nn(-c3ccccc3)c21 [Compound I-119] | – | ++ (Nanostring Ymax greater than 50.0 and less than or equal to 100.0) | – | + (MS Emax % adduct formation greater than or equal to 0.0 and less than or equal to 30.0) | 6.00 to 7.00 | – | 200 to 1000 | 6.00 to 6.70
